Data: patent US20180256673A1, “METHODS FOR TREATING FUNGAL INFECTIONS” (priority 2015, published 2018)
Converted amounts (≈) assume the structure as drawn. Like-named read-outs stand apart in the source and are kept apart here.

What was measured:
[1] = system: C. glabrata vaginal isolates; test: Susceptibility testing of VVC clinical isolates at pH 7 and 4 (CLSI M27-A3); format: cell-based, Candida glabrata; conditions: for MIC90: Nakaseomyces glabratus, 21 isolates, read-out: MIC90
[2] = system: C. parapsilosis vaginal isolates; test: as above; format: cell-based, Candida parapsilosis; conditions: 14 isolates, read-out: MIC90
Candida parapsilosis = test: Broth microdilution of invasive fungal isolates (CLSI M27-A3/M38-A2); format: cell-based; conditions: CLSI breakpoints
Candida tropicalis = test: as above; format: cell-based; conditions: CLSI breakpoints
[3] = system: azole-resistant C. albicans (R357); test: Immunosuppressed rat model of vulvovaginal candidiasis, vaginal CFU; format: in vivo, Candida albicans; conditions: oral 20 mg/kg once daily for three days; days 5 and 12
[4] = system: C. krusei ATCC 6258, ATCC 14243; test: Time-kill assay in vagina-simulative medium pH 4.0 (Table 20); format: cell-based, Candida krusei

Compound: OC(Cn1cncn1)(Cn1cncn1)c1ccc(F)cc1F [FLU, fluconazole]
- Number of isolates at MIC 2 μg/mL ([1]; 21 VVC isolates, 24 h, pH 4): 5
- Number of isolates at MIC 4 μg/mL ([1]; 21 VVC isolates, 24 h, pH 4): 3
- Number of isolates at MIC ≥4 μg/mL ([1]; 21 VVC isolates, 24 h, pH 4): 13
- Number of isolates at MIC 0.5 μg/mL ([1]; 21 VVC isolates, 24 h, pH 7): 4
- Number of isolates at MIC 1 μg/mL ([1]; 21 VVC isolates, 24 h, pH 7): 2
- Number of isolates at MIC 2 μg/mL ([1]; 21 VVC isolates, 24 h, pH 7): 5
- Number of isolates at MIC 4 μg/mL ([1]; 21 VVC isolates, 24 h, pH 7): 2
- Number of isolates at MIC ≥4 μg/mL ([1]; 21 VVC isolates, 24 h, pH 7): 8
- Number of isolates at MIC 2 μg/mL ([1]; 21 VVC isolates, 48 h, pH 4): 1
- Number of isolates at MIC 4 μg/mL ([1]; 21 VVC isolates, 48 h, pH 4): 2
- Number of isolates at MIC ≥4 μg/mL ([1]; 21 VVC isolates, 48 h, pH 4): 18
- Number of isolates at MIC 1 μg/mL ([1]; 21 VVC isolates, 48 h, pH 7): 3
- Number of isolates at MIC 2 μg/mL ([1]; 21 VVC isolates, 48 h, pH 7): 4
- Number of isolates at MIC 4 μg/mL ([1]; 21 VVC isolates, 48 h, pH 7): 2
- Number of isolates at MIC ≥4 μg/mL ([1]; 21 VVC isolates, 48 h, pH 7): 12
- MIC90 ([1]; pH 4, 24 h): 64 µg/mL (≈ 209 µM)
- MIC90 ([1]; pH 4, 48 h): > 64 µg/mL
- MIC90 ([1]; pH 7, 24 h): 16 µg/mL (≈ 52.2 µM)
- MIC90 ([1]; pH 7, 48 h): > 64 µg/mL
- MIC90 ([2]; pH 4, 24 h): 8 µg/mL (≈ 26.1 µM)
- MIC90 ([2]; pH 4, 48 h): > 64 µg/mL
- MIC90 ([2]; pH 7, 48 h): 32 µg/mL (≈ 104 µM)
- % of isolates with fluconazole resistance (Candida parapsilosis): 4.3%
- % of isolates with fluconazole resistance (Candida tropicalis): 2.0%
- reduction in vaginal CFU compared with no treatment control [3]: < 1 log-fold
- Susceptibility to FLU (S/R) ([4]; C. krusei ATCC 6258): R
- Susceptibility to FLU (S/R) ([4]; C. krusei ATCC 14243): R
